# Active and inactive are the calls of the source.
# What was measured:
# ORF 73 = ORF 73 (Human herpesvirus 8, UniProt O40947); assay: inhibitors of C-LANA binding to LBS DNA, dose response, biochemical, fluorescence polarization, cherry-picked samples (AID 504725); design: species or system Human gammaherpesvirus 8;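 further: fluorescence polarization of a labeled DNA duplex reporting LANA DNA binding; potency is for inhibitors that block LANA binding to the DNA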
# Beta-lactamase [1] = target: Beta-lactamase (Salmonella choleraesuis (strain SC-B67), UniProt Q5J463)
# Sequence of Beta-lactamase (Salmonella choleraesuis (strain SC-B67), UniProt Q5J463) (Q5J463 whole entry): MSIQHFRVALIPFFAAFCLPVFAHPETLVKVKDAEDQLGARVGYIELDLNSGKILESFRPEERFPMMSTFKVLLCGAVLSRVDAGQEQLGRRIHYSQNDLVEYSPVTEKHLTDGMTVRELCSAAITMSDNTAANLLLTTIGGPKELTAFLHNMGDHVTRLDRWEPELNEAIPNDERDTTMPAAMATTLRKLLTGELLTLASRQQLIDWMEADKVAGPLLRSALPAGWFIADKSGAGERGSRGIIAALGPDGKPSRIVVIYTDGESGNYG
# HEK293 [2] = assay: optical interference in Abeta FP readout, dose response, artefact control for IDE activator project, biochemical, fluorescence polarization (AID 588442); type: functional, cell-based; settings: Homo sapiens
# [3] = target: Dual specificity tyrosine-phosphorylation-regulated kinase 1A (Rattus norvegicus, UniProt Q63470); type: biochemical, Homo sapiens
# HeLa = assay: HeLa cell cytotoxicity, dose response, cytotoxicity control, 24 h, cherry-picked samples (AID 504726); type: functional, cell-based; settings: Homo sapiens;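 further: potency for cytotoxicity as loss of luminescence signal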
# Insulin-degrading enzyme [4] = target: T1, Insulin-degrading enzyme (Homo sapiens, UniProt P14735); assay: activators of recombinant IDE enzyme, dose response, counter-screen for IDE activator project, biochemical, fluorescence polarization (AID 588681)
# T1 sequence (P14735 whole entry): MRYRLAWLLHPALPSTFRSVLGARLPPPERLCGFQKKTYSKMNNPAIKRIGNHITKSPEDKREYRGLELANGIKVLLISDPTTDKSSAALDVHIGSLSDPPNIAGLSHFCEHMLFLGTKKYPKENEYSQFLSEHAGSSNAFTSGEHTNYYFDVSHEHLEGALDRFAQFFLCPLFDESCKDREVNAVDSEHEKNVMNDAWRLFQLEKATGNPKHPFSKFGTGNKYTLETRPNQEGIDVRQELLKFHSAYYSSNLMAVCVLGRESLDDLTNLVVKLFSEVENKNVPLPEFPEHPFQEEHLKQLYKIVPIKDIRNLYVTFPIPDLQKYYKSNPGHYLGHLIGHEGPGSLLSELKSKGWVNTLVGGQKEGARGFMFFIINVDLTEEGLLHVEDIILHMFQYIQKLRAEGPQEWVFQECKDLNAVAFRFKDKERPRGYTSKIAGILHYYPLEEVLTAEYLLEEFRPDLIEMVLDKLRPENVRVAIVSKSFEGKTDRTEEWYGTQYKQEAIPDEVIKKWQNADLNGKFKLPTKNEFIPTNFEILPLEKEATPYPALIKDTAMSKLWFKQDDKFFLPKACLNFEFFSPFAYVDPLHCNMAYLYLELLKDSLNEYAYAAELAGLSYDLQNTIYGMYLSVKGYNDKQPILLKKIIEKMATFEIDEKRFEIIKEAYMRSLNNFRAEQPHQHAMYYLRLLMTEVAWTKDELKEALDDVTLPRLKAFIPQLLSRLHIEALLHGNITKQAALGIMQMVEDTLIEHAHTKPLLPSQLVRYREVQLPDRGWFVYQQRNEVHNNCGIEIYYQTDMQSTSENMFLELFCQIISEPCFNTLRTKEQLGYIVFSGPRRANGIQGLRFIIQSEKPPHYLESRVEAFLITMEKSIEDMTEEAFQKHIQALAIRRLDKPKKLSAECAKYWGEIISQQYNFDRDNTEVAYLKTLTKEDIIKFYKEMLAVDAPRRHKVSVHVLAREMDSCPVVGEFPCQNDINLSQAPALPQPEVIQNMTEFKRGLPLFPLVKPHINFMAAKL
# HEK293 [5] = assay: HEK cell cytotoxicity by LDH release, dose response, cytotoxicity control for IDE activator project, fluorescence, HEK cells (AID 588440); type: functional, cell-based; settings: Homo sapiens;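 further: cytotoxicity by LDH release measuring loss of membrane integrity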
# Insulin-degrading enzyme [6] = target: T1, Insulin-degrading enzyme; assay: activators of endogenous IDE in HEK cells, dose response, cell-based, fluorescence polarization (AID 588439); type: functional
# Beta-lactamase [7] = target: Beta-lactamase (Pseudomonas aeruginosa, UniProt Q79MP6);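 further: biochemical dose-response test of metallo-beta-lactamase enzyme inhibition, read out by epi-absorbance; purified recombinant IMP-1 metallo-beta-lactamase with nitrocefin as substrate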
# [8] = target: T2, Short transient receptor potential channel 4 (Mus musculus, UniProt Q9QUQ5); assay: mouse TRPC4 channel inhibitors, dose response, cell-based, HEK293 TRPC4/mu-opioid, Fluo-4 calcium (AID 434942); type: functional;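 further: potency of inhibitors blocking the TRPC4 calcium response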
# T2 sequence (Q9QUQ5 whole entry): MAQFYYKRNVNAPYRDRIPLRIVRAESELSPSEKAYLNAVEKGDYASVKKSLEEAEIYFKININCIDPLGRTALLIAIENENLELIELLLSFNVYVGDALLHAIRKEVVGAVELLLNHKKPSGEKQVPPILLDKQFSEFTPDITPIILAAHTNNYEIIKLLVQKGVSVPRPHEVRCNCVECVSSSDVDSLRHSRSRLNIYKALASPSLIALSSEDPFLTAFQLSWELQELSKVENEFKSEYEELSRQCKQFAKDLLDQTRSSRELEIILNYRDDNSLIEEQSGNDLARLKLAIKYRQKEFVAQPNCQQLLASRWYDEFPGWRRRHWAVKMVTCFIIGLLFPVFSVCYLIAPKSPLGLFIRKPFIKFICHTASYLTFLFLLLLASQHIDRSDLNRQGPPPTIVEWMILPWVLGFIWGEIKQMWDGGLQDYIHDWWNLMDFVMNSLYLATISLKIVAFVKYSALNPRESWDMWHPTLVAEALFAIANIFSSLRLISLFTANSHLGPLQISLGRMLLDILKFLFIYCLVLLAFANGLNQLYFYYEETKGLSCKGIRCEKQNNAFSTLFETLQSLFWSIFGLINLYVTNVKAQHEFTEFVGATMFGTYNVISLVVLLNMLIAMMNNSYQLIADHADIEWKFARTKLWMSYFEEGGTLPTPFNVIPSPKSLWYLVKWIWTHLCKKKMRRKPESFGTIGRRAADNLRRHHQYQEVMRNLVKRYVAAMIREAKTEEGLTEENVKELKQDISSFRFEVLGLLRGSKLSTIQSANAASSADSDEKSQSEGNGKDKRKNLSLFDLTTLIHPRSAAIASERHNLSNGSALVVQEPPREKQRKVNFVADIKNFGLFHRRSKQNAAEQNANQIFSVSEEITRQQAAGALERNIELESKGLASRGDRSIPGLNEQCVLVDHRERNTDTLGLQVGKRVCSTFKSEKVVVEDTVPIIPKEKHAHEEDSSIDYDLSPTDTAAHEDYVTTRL
# [9] = target: T3, Corticotropin-releasing factor receptor 2/Corticotropin-releasing factor-binding protein (Homo sapiens, UniProt P24387+Q13324); assay: activators of CRF receptor 2 with binding protein – uHTS hits, confirmation (AID 602473); type: functional; settings: read-out: EC50_Mean
# T3 sequence (Q13324 whole entry): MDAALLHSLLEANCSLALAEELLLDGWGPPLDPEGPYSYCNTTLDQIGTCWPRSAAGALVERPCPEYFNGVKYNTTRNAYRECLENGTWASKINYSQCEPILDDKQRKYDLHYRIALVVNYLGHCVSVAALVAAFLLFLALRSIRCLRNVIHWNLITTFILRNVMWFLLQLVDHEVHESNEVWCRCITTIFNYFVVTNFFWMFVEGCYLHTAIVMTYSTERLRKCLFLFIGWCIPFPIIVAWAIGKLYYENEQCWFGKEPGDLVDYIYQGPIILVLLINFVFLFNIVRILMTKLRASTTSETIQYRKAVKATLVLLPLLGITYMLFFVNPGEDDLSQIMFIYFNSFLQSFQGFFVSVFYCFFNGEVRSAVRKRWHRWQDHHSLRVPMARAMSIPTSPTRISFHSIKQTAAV
# T3 sequence (P24387 whole entry): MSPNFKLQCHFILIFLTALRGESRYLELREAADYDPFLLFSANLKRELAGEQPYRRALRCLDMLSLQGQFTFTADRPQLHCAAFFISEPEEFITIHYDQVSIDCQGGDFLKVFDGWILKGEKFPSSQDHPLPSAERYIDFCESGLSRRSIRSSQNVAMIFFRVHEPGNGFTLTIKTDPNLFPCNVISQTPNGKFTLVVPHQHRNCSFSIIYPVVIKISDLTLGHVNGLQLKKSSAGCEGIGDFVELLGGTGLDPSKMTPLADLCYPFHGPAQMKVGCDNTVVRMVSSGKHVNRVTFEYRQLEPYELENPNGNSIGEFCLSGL
# [10] = target: G-protein coupled receptor 35 (Homo sapiens, UniProt Q9HC97); assay: GPR35 antagonists blocking zaprinast-driven arrestin recruitment, primary screen, imaging, U2OS, beta-arrestin-GFP, zaprinast agonist (AID 2058); type: functional;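 further: antagonist potency meaning inhibition of agonist-induced arrestin redistribution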
# Sequence of G-protein coupled receptor 35 (Q9HC97 whole entry): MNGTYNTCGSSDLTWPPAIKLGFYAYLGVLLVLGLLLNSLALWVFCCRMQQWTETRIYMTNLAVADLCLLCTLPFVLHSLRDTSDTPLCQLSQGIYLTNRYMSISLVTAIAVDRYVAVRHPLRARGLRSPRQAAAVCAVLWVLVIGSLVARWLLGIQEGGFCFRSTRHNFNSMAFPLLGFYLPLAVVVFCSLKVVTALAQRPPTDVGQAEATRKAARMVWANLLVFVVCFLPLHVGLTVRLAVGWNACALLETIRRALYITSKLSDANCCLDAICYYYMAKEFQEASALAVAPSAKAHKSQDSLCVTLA
# [11] = target: T2, Short transient receptor potential channel 4; assay: mouse TRPC4 channel activators, dose response, cell-based, HEK293 TRPC4/mu-opioid, Fluo-4 calcium (AID 434937); type: functional
# X-box-binding protein 1 = X-box-binding protein 1 (Homo sapiens, UniProt P17861); type: functional, Cricetulus griseus;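 further: confirmatory dose-response counter-screen serving a CHOP assay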
# Sequence of X-box-binding protein 1 (P17861 whole entry): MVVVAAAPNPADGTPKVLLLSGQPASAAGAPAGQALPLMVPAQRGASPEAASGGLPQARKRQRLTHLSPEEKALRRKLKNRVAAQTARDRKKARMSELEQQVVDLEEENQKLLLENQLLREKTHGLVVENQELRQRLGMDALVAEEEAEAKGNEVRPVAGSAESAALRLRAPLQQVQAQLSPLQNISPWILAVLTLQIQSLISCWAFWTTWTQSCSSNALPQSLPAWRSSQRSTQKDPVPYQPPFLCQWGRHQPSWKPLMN
# [12] = target: T4, Neuropeptides B/W receptor type 1 (Homo sapiens, UniProt P48145); assay: Fluorescence-based dose response cell-based high throughput screening assay to identify antagonists of the G-protein coupled receptor 7 (GPR7). [Related pubchem assays: 1952 (Screening assay (GPR7 antagonists).), 1880 (Summary AID.)]; type: functional
# T4 sequence (P48145 whole entry): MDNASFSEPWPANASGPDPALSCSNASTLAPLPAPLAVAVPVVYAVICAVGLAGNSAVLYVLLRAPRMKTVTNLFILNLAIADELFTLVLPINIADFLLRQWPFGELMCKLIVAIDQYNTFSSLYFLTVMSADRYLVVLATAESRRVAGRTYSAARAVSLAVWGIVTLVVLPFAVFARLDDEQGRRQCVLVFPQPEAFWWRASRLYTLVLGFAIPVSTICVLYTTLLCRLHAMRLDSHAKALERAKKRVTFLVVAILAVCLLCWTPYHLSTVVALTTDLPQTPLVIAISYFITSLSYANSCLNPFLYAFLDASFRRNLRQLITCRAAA
# Fatty acid synthase [13] = target: T5, Fatty acid synthase (Homo sapiens, UniProt P49327); assay: FAS thioesterase domain inhibitors, dose response, biochemical, kinetic fluorescence intensity (AID 624326); type: functional;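 further: rate of fluorescence rise from hydrolysis of a fluorogenic O-methyl fluorescein ester substrate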
# T5 sequence (P49327 whole entry, the tested form may be a part): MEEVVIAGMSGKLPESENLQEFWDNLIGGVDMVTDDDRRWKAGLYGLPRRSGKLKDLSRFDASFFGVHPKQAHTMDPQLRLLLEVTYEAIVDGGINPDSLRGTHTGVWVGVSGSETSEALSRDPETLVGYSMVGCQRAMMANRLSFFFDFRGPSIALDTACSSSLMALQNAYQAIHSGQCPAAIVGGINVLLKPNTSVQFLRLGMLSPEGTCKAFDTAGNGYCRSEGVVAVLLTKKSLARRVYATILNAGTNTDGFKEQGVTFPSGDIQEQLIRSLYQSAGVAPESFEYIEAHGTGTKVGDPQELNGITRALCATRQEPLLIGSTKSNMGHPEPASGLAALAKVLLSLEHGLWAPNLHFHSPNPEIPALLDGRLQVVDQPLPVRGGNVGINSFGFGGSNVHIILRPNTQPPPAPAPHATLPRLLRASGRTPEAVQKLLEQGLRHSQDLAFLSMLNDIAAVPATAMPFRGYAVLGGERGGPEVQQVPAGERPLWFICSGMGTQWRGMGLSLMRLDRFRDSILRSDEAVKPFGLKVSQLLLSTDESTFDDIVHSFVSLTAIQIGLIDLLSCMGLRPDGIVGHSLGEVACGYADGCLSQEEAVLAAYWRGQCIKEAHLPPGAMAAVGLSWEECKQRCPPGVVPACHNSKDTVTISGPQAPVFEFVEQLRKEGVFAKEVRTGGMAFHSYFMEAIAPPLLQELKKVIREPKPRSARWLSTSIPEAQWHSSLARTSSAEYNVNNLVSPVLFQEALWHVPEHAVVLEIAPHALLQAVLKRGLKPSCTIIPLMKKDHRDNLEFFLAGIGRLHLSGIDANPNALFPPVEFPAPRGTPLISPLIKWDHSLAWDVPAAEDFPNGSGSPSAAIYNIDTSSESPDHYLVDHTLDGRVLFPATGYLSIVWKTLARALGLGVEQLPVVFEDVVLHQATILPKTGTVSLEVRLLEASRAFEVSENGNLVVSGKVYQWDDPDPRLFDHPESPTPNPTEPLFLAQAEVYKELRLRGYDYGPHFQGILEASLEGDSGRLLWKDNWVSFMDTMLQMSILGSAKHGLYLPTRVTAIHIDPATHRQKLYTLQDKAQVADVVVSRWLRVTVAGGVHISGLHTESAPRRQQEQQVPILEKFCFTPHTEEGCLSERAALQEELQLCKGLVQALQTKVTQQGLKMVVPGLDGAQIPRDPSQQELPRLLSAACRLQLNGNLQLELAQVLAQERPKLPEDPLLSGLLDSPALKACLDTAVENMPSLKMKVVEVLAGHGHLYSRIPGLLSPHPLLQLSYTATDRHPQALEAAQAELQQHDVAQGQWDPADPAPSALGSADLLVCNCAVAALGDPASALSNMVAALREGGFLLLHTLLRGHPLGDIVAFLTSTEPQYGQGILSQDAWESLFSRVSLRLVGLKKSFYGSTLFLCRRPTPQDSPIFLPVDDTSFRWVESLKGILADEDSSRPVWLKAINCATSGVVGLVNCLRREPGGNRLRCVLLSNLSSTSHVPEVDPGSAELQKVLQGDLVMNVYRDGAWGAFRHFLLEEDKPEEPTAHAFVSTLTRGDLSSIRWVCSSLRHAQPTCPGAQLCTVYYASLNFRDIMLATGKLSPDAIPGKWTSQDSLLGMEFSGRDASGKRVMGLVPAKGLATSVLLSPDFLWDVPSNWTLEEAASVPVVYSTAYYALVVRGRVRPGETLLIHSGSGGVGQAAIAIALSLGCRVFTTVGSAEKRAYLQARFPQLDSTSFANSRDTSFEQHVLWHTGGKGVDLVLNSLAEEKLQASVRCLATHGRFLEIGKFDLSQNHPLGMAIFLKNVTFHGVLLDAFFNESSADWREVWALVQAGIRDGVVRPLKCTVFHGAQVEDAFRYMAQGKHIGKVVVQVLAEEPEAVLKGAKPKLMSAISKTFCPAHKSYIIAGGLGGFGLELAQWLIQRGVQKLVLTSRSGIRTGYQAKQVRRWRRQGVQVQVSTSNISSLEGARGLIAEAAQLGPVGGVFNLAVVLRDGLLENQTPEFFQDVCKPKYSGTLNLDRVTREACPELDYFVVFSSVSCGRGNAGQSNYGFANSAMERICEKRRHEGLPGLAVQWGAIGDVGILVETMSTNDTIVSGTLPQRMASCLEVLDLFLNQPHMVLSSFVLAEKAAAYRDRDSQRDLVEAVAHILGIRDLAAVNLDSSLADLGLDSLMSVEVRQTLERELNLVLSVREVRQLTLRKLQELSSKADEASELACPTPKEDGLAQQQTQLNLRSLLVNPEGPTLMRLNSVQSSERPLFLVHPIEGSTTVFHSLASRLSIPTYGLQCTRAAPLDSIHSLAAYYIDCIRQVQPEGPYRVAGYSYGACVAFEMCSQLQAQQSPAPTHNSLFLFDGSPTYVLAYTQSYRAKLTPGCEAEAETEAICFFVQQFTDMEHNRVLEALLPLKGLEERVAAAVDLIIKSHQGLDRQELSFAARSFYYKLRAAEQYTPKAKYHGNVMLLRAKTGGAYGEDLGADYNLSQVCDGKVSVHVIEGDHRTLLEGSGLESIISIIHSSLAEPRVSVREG
# Fatty acid synthase [14] = target: T5, Fatty acid synthase; assay: FAS thioesterase domain inhibitors, dose response, biochemical, endpoint fluorescence intensity, uHTS hits (AID 624327); type: functional;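 further: fluorescence from hydrolysis of an O-methyl fluorescein acyl ester substrate by the enzyme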
# [15] = target: Melanin-concentrating hormone receptor 1 (Homo sapiens, UniProt Q99705); assay: Fluorescence-based counterscreen for antagonists of the G-protein coupled receptor 7 (GPR7): cell-based high throughput dose response assay to identify antagonists of the melanin-concentrating hormone receptor 1 (MCHR1).; type: functional
# Sequence of Melanin-concentrating hormone receptor 1 (Q99705 whole entry): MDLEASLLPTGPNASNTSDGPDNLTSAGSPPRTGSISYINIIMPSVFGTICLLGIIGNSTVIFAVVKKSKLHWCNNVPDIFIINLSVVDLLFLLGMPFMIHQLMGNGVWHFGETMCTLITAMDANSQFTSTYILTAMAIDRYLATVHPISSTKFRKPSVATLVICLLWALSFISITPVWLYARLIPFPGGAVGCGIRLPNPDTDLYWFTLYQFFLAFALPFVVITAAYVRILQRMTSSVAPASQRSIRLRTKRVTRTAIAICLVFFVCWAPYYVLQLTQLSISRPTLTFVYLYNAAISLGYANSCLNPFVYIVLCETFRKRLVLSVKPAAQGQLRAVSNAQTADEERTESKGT
# [16] = target: Acyl-homoserine lactone acylase PvdQ (Pseudomonas aeruginosa (strain LESB58), UniProt Q9I194); assay: P. aeruginosa PvdQ acylase inhibitors, dose response, biochemical, fluorescence, plate reader and imaging, cherry-picks (AID 493231)
# Sequence of Acyl-homoserine lactone acylase PvdQ (Q9I194 24-193 limits assumed): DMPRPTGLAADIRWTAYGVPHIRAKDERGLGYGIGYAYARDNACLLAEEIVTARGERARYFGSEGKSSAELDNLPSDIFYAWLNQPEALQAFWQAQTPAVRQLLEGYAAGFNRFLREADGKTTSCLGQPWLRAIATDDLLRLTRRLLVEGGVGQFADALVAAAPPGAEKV
# Sequence of Acyl-homoserine lactone acylase PvdQ (Q9I194 217-762 limits assumed): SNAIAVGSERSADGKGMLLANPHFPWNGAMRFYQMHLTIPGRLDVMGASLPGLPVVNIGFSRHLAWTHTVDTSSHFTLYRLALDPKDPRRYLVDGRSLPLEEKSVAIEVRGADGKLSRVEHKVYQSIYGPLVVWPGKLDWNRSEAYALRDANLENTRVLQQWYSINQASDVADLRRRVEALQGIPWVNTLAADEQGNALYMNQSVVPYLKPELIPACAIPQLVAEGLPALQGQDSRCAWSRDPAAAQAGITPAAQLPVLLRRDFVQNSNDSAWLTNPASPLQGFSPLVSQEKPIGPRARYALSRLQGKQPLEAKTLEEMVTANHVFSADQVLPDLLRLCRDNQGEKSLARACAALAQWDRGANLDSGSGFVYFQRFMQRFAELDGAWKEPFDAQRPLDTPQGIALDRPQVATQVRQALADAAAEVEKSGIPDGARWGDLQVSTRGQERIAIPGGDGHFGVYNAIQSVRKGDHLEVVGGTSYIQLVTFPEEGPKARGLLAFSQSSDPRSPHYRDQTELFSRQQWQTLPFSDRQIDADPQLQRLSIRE
# [17] = target: T6, Heat shock factor protein 1 (Mus musculus, UniProt P38532); assay: HSF1 potentiators in luciferase reporter cells, confirmation, cell-based, NIH3T3, luminescence, dose retest (AID 435004); type: functional;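 further: stress induced by proteasome inhibitor MG132 added 30 min after compound; luciferase reporter driven by HSF1 response element in NIH3T3 cells; actives raise luminescence as potentiators of the MG132 stress response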
# T6 sequence (P38532 whole entry): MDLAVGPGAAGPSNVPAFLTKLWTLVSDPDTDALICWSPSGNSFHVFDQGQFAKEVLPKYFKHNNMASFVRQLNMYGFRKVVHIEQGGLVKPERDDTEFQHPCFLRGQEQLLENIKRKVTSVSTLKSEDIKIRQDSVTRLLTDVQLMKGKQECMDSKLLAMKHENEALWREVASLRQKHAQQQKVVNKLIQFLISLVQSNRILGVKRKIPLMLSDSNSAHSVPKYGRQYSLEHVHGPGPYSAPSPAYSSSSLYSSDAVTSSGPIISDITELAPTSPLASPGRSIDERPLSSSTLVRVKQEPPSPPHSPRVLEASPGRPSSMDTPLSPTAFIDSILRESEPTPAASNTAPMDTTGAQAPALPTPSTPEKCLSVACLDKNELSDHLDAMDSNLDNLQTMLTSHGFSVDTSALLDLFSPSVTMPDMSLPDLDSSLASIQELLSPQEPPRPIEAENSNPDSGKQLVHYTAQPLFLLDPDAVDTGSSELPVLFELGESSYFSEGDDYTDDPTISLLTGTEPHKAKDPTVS
# Vero = assay: Vero E6 cell cytotoxicity, SAR follow-up, cytotoxicity control for West Nile virus antiviral project, synthesized analogs (AID 2244); type: functional; settings: Chlorocebus sabaeus
# Hexokinase = Hexokinase (Trypanosoma brucei, UniProt Q38C41); assay: Confirmation assay for inhibitors of Trypanosoma brucei hexokinase 1-Analogue-first series. [Related pubchem assays (depositor defined):AID1430, AID1632, AID2516, AID2560, AID2579, AID2600, AID449725, AID492951]; type: functional
# Sequence of Hexokinase (Q38C41 whole entry): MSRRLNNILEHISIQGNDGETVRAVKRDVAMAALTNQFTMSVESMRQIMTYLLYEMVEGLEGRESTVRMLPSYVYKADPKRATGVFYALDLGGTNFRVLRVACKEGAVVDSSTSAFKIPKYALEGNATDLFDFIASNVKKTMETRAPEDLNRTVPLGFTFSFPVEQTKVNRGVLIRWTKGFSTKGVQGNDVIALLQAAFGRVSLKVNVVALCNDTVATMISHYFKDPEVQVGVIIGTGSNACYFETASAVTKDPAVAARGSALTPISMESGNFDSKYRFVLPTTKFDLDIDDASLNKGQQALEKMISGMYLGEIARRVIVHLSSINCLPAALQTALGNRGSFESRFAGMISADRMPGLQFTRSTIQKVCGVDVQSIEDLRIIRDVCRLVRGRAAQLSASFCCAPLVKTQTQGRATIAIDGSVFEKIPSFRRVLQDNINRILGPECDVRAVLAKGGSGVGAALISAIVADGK
compound,measurement,setting,value
COCCCNc1c(O)nc2cccc3c2c1-c1ccccc1C3=O,AC50,ORF 73,0.526 µM (active)
same,IC50,Beta-lactamase [1],0.89 µM (active)
same,EC50,HEK293 [2],> 54.7 µM (inactive)
same,AC50,[3],1.57 µM (active)
same,AC50,HeLa,66.1 µM (active)
same,EC50,Insulin-degrading enzyme [4],> 54.7 µM (inactive)
same,IC50,HEK293 [5],> 89.2 µM (inactive)
same,EC50,Insulin-degrading enzyme [6],> 54.7 µM (inactive)
same,IC50,Beta-lactamase [7],2.11 µM (active)
CCc1cc(C(c2cccc(OC)c2)N2CCOCC2)c(NC(=O)c2ccccc2)s1 (stereo unspecified),EC50,[8],1.88 µM (active)
CCCCN1C(=O)NC(=O)/C(=C(O)\C=C\c2c[nH]c3ccccc23)C1=O,EC50,[9],6.02 µM (active)
same,IC50,[10],3.1 µM (active)
Cc1onc(-c2ccccc2)c1C(=O)NNC(=S)NC(=O)/C=C/c1ccccc1,EC50,[9],3.32 µM (active)
same,EC50,[8],5.31 µM (active)
same,EC50,[11],4.22 µM (active)
CC(C)C(=O)N1CCC(CNC=C2C(=O)N(C3CCCCC3)C(=O)N(C3CCCCC3)C2=O)CC1,Absolute IC50 (XBP1),X-box-binding protein 1,10 µM
O=C(COc1ccc([N+](=O)[O-])cc1)NCCC1=CCCCC1,IC50,[12],> 14.6 µM (not active)
same,IC50,Fatty acid synthase [13],10.1 µM (active)
same,IC50,Fatty acid synthase [14],8.16 µM (active)
same,IC50,[15],22.2 µM (not active)
COC(=O)c1noc(-c2ccc(OC)cc2)n1,AC50,[16],> 100 µM (inactive)
O=C(NC1CCCCCCC1)c1cc([N+](=O)[O-])ccc1Cl,AC50,[16],40.8 µM (active)
same,IC50,Fatty acid synthase [13],7.35 µM (active)
same,IC50,Fatty acid synthase [14],9.4 µM (active)
Clc1ccc(-n2c(SC/C=C/c3ccccc3)nnc2-c2cccnc2)cc1,IC50,[12],16.9 µM (not active)
same,EC50,[17],46.1 µM (active)
same,IC50,[15],8.43 µM (active)
COc1ccc(-c2csc(N(CCCN(C)C)C(=O)c3ccccc3F)n2)cc1,CC50,Vero,> 80 µM (active)
COc1ccc(C(=O)Nc2cc(Cl)ccc2[N+](=O)[O-])cc1,IC50,Hexokinase,> 25 µM (inactive)
N#Cc1ccc(NC(=O)Cn2sc3ccccc3c2=O)cc1,IC50,Hexokinase,6.97 µM (active)
Cc1ccc(OCC(=O)N/N=C/c2c[nH]nc2-c2ccc(Cl)c(Cl)c2)cc1,Absolute IC50 (XBP1),X-box-binding protein 1,10 µM

# Reference: ChEMBL document CHEMBL1201862, “PubChem BioAssay data set” (2004)
